# Where a name gives a salt, the structure may show the parent alone.
# Target: T1, human TRPM8 (Homo sapiens, UniProt Q7Z2W7)
# T1 construct: expressed in transfected cells; host or cells: Chinese hamster ovary (CHO) cells, T-REx tetracycline-inducible expression system (Invitrogen); co-transfected with pcDNA3.1 aequorin
# Assay: Luminescence readout assay for measuring intracellular calcium (aequorin, CHO cells expressing human TRPM8; icilin, L-menthol or cold activation)
# Format: cell-based
# Conditions: CHO cells expressing human TRPM8, icilin activation (1 μM), aequorin luminescence; read-out: hTRPM8 IC50
# How it was run: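 Activation was by 1 μM icilin, 100 μM L-menthol (test compound 2.5 min ahead) or cold buffer below 10° C (compound 1 min ahead). Calcium rise measured as aequorin luminescence in CHO cells with tetracycline-inducible human TRPM8.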
# T1 sequence (Q7Z2W7 whole entry): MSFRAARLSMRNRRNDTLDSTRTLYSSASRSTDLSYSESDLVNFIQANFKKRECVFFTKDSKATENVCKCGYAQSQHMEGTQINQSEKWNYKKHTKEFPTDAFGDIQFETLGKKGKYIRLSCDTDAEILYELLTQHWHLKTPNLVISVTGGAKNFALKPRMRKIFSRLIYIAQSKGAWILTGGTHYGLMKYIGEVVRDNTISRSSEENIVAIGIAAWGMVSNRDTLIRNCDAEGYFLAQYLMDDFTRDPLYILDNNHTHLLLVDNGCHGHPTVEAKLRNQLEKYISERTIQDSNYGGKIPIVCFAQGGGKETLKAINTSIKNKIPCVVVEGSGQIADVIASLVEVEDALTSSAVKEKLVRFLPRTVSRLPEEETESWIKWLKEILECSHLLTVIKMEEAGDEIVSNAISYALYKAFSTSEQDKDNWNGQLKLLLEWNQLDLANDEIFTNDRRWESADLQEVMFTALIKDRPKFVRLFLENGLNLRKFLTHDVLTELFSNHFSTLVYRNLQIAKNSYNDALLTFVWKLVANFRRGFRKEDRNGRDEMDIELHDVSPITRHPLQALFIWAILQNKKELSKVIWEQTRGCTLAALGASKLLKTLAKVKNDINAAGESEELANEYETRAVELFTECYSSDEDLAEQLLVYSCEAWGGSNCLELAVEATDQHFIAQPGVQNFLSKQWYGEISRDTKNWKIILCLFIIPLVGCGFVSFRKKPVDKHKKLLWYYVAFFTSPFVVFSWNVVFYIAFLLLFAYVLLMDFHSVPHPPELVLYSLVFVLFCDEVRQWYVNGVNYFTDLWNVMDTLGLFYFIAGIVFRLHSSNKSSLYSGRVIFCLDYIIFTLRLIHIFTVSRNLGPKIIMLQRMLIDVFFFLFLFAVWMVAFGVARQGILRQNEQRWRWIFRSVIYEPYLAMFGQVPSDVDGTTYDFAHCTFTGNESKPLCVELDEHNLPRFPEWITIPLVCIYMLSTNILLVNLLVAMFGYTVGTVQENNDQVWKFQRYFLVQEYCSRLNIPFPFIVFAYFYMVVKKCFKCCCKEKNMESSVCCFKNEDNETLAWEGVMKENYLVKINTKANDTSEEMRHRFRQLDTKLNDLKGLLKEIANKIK
row,Compound,IC50
1,"COC(=O)c1ccc(NC(=O)N[C@]2(c3ccc(OC(F)(F)F)c(F)c3)CCOc3cccnc32)cn1 [Example 87, (S)-methyl 5-(3-(4-(3-fluoro-4-(trifluoromethoxy)phenyl)-3,4-dihydro-2H-pyrano[3,2-b]pyridin-4-yl)ureido)picolinate]",24 nM
2,"COC(=O)c1ccc(C(=O)N[C@]2(c3ccc(OC(F)(F)F)cc3)CCOc3cccnc32)nc1 [Example 176, (S)-methyl 6-((4-(4-(trifluoromethoxy)phenyl)-3,4-dihydro-2H-pyrano[3,2-b]pyridin-4-yl)carbamoyl) nicotinate]",54 nM
3,"O=C(N[C@]1(c2ccc(OC(F)(F)F)c(F)c2)CCOc2cccnc21)c1csc(C(=O)O)n1 [Example 329, (S)-4-((4-(3-fluoro-4-(trifluoro-methoxy)phenyl)-3,4-dihydro-2H-pyrano[3,2-b]pyridin-4-yl)carbamoyl) thiazole-2-carboxylic acid]",231 nM
4,"CNc1cc(C(=O)N[C@]2(c3ccc(OC(F)(F)F)c(F)c3)CCOc3cccnc32)cc(F)c1C(=O)O [Example 304, (S)-2-fluoro-4-((4-(3-fluoro-4-(trifluoromethoxy)phenyl)-3,4-dihydro-2H-pyrano[3,2-b]pyridin-4-yl)carbamoyl)-6-(methylamino)benzoic acid]",28 nM
5,"COc1ccc(C(=O)O)cc1C(=O)N[C@]1(c2ccc(OC(F)(F)F)c(F)c2)CCOc2cccnc21 [Example 316, (S)-3-((4-(3-fluoro-4-(trifluoro-methoxy)phenyl)-3,4-dihydro-2H-pyrano[3,2-b]pyridin-4-yl)carbamoyl)-4-methoxybenzoic acid]",89 nM
6,"O=C1CCc2cc(C(=O)N[C@]3(c4ccc(C(F)(F)F)cc4)CCOc4cccnc43)ccc2N1 [Example 33, (S)-2-oxo-N-(4-(4-(trifluoromethyl)phenyl)-3,4-dihydro-2H-pyrano[3,2-b]pyridin-4-yl)-1,2,3,4-tetrahydroquinoline-6-carboxamide]",5 nM
7,"O=C1CCc2cc(C(=O)N[C@]3(c4ccc(OC(F)(F)F)c(F)c4)CCOc4cccnc43)ccc2N1 [Example 54, (S)-N-(4-(3-fluoro-4-(trifluoromethoxy)phenyl)-3,4-dihydro-2H-pyrano[3,2-b]pyridin-4-yl)-2-oxo-1,2,3,4-tetrahydroquinoline-6-carboxamide]",11 nM
8,"CC(C)(C)OC(=O)N[C@]1(c2ccc(OC(F)(F)F)c(F)c2)CCOc2cccnc21 [Example 78, (S)-tert-butyl (4-(3-fluoro-4-(trifluoromethoxy)phenyl)-3,4-dihydro-2H-pyrano[3,2-b]pyridin-4-yl)carbamate]",58 nM
9,"O=C(N[C@]1(c2ccc(OC(F)(F)F)cc2)CCOc2cccnc21)c1cn2ncccc2n1 [Example 243, (S)-N-(4-(4-(trifluoromethoxy)phenyl)-3,4-dihydro-2H-pyrano[3,2-b]pyridin-4-yl)imidazo[1,2-b] pyridazine-2-carboxamide formate]",16.6 nM
10,"Cc1cc(C(=O)N[C@]2(c3ccc(OC(F)(F)F)c(F)c3)CCOc3cccnc32)cc(C)c1C(=O)O [Example 311, (S)-4-((4-(3-fluoro-4-(trifluoro-methoxy)phenyl)-3,4-dihydro-2H-pyrano[3,2-b]pyridin-4-yl)carbamoyl)-2,6-dimethylbenzoic acid]",155 nM
11,"CC(O)c1ccc(C(=O)N[C@]2(c3ccc(OC(F)(F)F)c(F)c3)CCOc3cccnc32)cc1 (mixture of isomers) [Example 157, N—((S)-4-(3-fluoro-4-(trifluoromethoxy)phenyl)-3,4-dihydro-2H-pyrano[3,2-b]pyridin-4-yl)-4-((R)-1-hydroxyethyl)benzamide and N—((S)-4-(3-fluoro-4-(trifluoromethoxy)phenyl)-3,4-dihydro-2H-pyrano[3,2-b]pyridin-4-yl)-4-((S)-1-hydroxyethyl)benzamide (1:1)]",12 nM
12,"Cn1c(C(=O)N[C@]2(c3ccc(OC(F)(F)F)cc3)CCOc3cccnc32)cc2ccccc21 [Example 256, (S)-1-methyl-N-(4-(4-(trifluoromethoxy)phenyl)-3,4-dihydro-2H-pyrano[3,2-b]pyridin-4-yl)-1H-indole-2-carboxamide formate]",48 nM
13,"C[C@@H](O)Cn1cc(C(=O)N[C@]2(c3ccc(OC(F)(F)F)c(F)c3)CCOc3cccnc32)ccc1=O [Example 202, N-((S)-4-(3-fluoro-4-(trifluoromethoxy)phenyl)-3,4-dihydro-2H-pyrano[3,2-b]pyridin-4-yl)-1-((R)-2-hydroxypropyl)-6-oxo-1,6-dihydropyridine-3-carboxamide]",27 nM
14,"O=C(N[C@]1(c2ccc(OC(F)(F)F)cc2)CCOc2cccnc21)c1cc[nH]n1 [Example 211, (S)-N-(4-(4-(trifluoromethoxy)phenyl)-3,4-dihydro-2H-pyrano[3,2-b]pyridin-4-yl)-1H-pyrazole-3-carboxamide formate]",336 nM
15,"O=C(NC1(c2ccc(C(F)(F)F)cc2)CCCc2cccnc21)c1ccccc1 (stereo not shown) [Example 29, N-(8-(4-(trifluoromethyl)phenyl)-5,6,7,8-tetrahydroquinolin-8-yl)benzamide]",143 nM
16,"O=C(N[C@]1(c2ccc(OC(F)(F)F)cc2)CCOc2cccnc21)c1cccc2[nH]cnc12 [Example 238, (S)-N-(4-(4-(trifluoromethoxy)phenyl)-3,4-dihydro-2H-pyrano[3,2-b]pyridin-4-yl)-1H-benzo[d]imidazole-4-carboxamide formate]",41.4 nM
17,"O=C(N[C@]1(c2ccc(OC(F)(F)F)c(F)c2)CCOc2cccnc21)c1cc(F)c(O)c(F)c1 [Example 207, (S)-3,5-difluoro-N-(4-(3-fluoro-4-(trifluoromethoxy)phenyl)-3,4-dihydro-2H-pyrano[3,2-b]pyridin-4-yl)-4-hydroxybenzamide]",1 nM
18,"NS(=O)(=O)c1ccc(C(=O)N[C@]2(c3ccc(OC(F)(F)F)c(F)c3)CCOc3cccnc32)cc1 [Example 184, (S)-N-(4-(3-fluoro-4-(trifluoromethoxy)phenyl)-3,4-dihydro-2H-pyrano[3,2-b]pyridin-4-yl)-sulfamoylbenzamide]",50 nM
19,"N#Cc1ccc(NC(=O)N[C@]2(c3ccc(OC(F)(F)F)c(F)c3)CCOc3cccnc32)cc1 [Example 68, (S)-1-(4-cyanophenyl)-3-(4-(3-fluoro-4-(trifluoromethoxy)phenyl)-3,4-dihydro-2H-pyrano[3,2-b]pyridin-4-yl)urea]",23 nM
20,"CCOC(=O)c1nc(C(=O)N[C@]2(c3ccc(OC(F)(F)F)c(F)c3)CCOc3cccnc32)cs1 [Example 279, (S)-ethyl 4-((4-(3-fluoro-4-(trifluoromethoxy)phenyl)-3,4-dihydro-2H-pyrano[3,2-b]pyridin-4-yl)carbamoyl) thiazole-2-carboxylate]",53 nM
21,"O=C(N[C@]1(c2ccc(OC(F)(F)F)c(F)c2)CCOc2cccnc21)c1ccc(C(O)C(F)(F)F)cc1 (mixture of isomers) [Example 159, N—((S)-4-(3-fluoro-4-(trifluoromethoxy)phenyl)-3,4-dihydro-2H-pyrano[3,2-b]pyridin-4-yl)-4-((R)-2,2,2-trifluoro-1-hydroxyethyl)benzamide and N—((S)-4-(3-fluoro-4-(trifluoromethoxy)phenyl)-3,4-dihydro-2H-pyrano[3,2-b]pyridin-4-yl)-4-((S)-2,2,2-trifluoro-1-hydroxyethyl)benzamide (1:1)]",46 nM

# Continued, values first:
row,IC50,Compound
1,501 nM,"O=C(N[C@]1(c2ccc(-c3ccccc3CO)cc2)CCOc2cccnc21)c1ccc(F)cc1 [Example 128, (S)-4-fluoro-N-(4-(2′-(hydroxymethyl)-[1,1′-biphenyl]-4-yl)-3,4-dihydro-2H-pyrano[3,2-b]pyridin-4-yl)benzamide]"
2,9 nM,"O=C(N[C@]1(c2ccc(C(F)(F)F)cc2)CCOc2cccnc21)c1ccc(O)cc1 (single isomer, unassigned) [Example 4]"
3,113 nM,"COc1ncccc1-c1ccc([C@@]2(NC(=O)c3ccc(F)cc3)CCOc3cccnc32)cc1 [Example 131, (S)-4-fluoro-N-(4-(4-(2-methoxypyridin-3-yl)phenyl)-3,4-dihydro-2H-pyrano[3,2-b]pyridin-4-yl)benzamide]"
4,34 nM,"Cn1ccc2cc(C(=O)N[C@]3(c4ccc(OC(F)(F)F)cc4)CCOc4cccnc43)ccc21 [Example 258, (S)-1-methyl-N-(4-(4-(trifluoromethoxy)phenyl)-3,4-dihydro-2H-pyrano[3,2-b]pyridin-4-yl)-1H-indole-5-carboxamide formate]"
5,91 nM,"O=C(N[C@]1(c2ccc(Cl)cc2)CCOc2cccnc21)c1ccccc1 (single isomer, unassigned) [Example 14]"
6,24 nM,"Cn1ccc2cc(C(=O)N[C@]3(c4ccc(C(F)(F)F)cc4)CCOc4cccnc43)ccc21 [Example 42, (S)-1-methyl-N-(4-(4-(trifluoromethyl)phenyl)-3,4-dihydro-2H-pyrano[3,2-b]pyridin-4-yl)-1H-indole-5-carboxamide]"
7,357 nM,"O=C(N[C@]1(c2ccc(F)cc2)CCOc2cccnc21)c1ccccc1 (single isomer, unassigned) [Example 16]"
8,358 nM,"O=C(N[C@]1(c2ccc(C(F)(F)F)cc2)CCOc2cccnc21)c1ccncc1 [Example 46, (S)-N-(4-(4-(trifluoromethyl)phenyl)-3,4-dihydro-2H-pyrano[3,2-b]pyridin-4-yl)isonicotinamide]"
9,340 nM,"O=C(N[C@]1(c2ccc(-c3cc(F)ccc3CO)cc2)CCOc2cccnc21)c1ccc(F)cc1 [Example 140, (S)-4-fluoro-N-(4-(5′-fluoro-2′-(hydroxymethyl)-[1,1′-biphenyl]-4-yl)-3,4-dihydro-2H-pyrano[3,2-b]pyridin-4-yl)benzamide]"
10,3560 nM,"NC(=O)c1cc(-c2ccc([C@@]3(NC(=O)c4ccc(F)cc4)CCOc4cccnc43)cc2)ccc1Cl [Example 123, (S)-4-chloro-4′-(4-(4-fluorobenzamido)-3,4-dihydro-2H-pyrano[3,2-b]pyridin-4-yl)-[1,1′-biphenyl]-3-carboxamide]"

# Source: patent publication US20150031668A1, “CHROMAN DERIVATIVES AS TRPM8 INHIBITORS” (AMGEN INC., priority 2013, published 2015)
